Reference: PMC6197257 (Scientific Reports, 2018)

Columns and labels:
[1] = target: T1, rat 11β-HSD2 (Rattus norvegicus, UniProt P50233); conditions: previous study; cited from earlier work
T1 construct: kidney microsome fractions were obtained from male Wistar rats (7-week-old); from tissue; host or cells: rat kidney microsome fraction (male Wistar rats)
T1 sequence (P50233 1-400): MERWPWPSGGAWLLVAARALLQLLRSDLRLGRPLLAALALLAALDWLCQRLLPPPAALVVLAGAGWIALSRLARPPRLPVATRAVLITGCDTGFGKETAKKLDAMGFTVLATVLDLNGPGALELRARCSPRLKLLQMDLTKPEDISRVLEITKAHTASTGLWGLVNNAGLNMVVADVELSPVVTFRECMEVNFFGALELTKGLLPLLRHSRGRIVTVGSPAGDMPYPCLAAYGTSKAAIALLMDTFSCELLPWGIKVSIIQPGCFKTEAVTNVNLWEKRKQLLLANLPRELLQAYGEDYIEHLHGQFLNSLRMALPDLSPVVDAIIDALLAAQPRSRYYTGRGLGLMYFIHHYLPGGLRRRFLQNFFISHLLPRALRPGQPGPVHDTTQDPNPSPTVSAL

[2] = target: T2, OAT1 (Homo sapiens, UniProt Q4U2R8); conditions: cited from earlier work
T2 construct: expressed in transfected cells
T2 sequence (Q4U2R8 1-563): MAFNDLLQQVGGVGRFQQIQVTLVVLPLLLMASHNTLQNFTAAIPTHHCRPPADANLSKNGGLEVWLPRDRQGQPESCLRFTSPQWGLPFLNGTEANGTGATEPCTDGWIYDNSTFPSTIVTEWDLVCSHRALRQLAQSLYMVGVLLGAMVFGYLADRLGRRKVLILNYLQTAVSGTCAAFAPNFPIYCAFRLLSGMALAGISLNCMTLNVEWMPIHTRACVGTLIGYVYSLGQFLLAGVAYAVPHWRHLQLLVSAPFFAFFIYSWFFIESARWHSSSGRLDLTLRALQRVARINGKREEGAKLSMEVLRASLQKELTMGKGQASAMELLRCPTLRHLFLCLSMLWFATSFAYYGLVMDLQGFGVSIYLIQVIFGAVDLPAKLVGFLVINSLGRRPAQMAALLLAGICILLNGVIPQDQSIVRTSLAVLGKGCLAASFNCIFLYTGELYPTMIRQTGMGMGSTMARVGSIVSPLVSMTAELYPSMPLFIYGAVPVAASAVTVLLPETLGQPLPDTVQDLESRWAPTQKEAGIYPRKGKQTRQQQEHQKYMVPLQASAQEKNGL

[3] = pharmacokinetic profile of 3MGA in EHBRs orally treated with GA (50 mg/kg); format: in vivo; conditions: Eisai Hyperbilirubinemia rats (EHBR), rat, plasma; female EHBRs, GA 50 mg/kg oral; read-out: time of maximum plasma concentration
Description: Female EHBRs (8 or 9-week-old) were orally treated with GA (50 mg/kg) suspended in 0.5% CMC, and kept in metabolic cages. Blood samples (approximately 0.3 ml) were collected from the tail 1, 2, 3, 6, 12, 24, and 48 h after the oral treatment. Urine samples were collected 6, 12, 24, and 48 h after the oral treatment. The concentrations of 3MGA in the samples were measured by both ELISA and LC-MS/MS described in our previous paper. Ten µl aliquots of plasma or urine from rats treated with GA, or standard solution of 3MGA in plasma or urine collected from normal rats were mixed with 20 µl of 1:1,000 diluted subtilisin, and incubated at 37 °C for 30 min. After adding 70 µl of EtOH containing 10 µg/ml of PHB used as internal standard, the solution was applied into the system. The mass spectrometer used an electrospray ionization source in the positive ion mode with multiple reaction monitoring (ESI(+)MS-MRM). The analytical column was an Inertsil ODS-4, 2 mm i.d. ×75 mm, 3 µm (GL Sciences Inc., Tokyo, Japan). […] The transitions (precursor to daughter) monitored and retention times were 647.4 to 453.5 m/z for 3MGA (4.4 min) and 195.2 to 139.0 m/z for PHB (4.8 min). […]

[4] = target: T3, OAT3 (Homo sapiens, UniProt Q8TCC7); conditions: cited from earlier work
T3 construct: expressed in transfected cells
T3 sequence (Q8TCC7 1-542): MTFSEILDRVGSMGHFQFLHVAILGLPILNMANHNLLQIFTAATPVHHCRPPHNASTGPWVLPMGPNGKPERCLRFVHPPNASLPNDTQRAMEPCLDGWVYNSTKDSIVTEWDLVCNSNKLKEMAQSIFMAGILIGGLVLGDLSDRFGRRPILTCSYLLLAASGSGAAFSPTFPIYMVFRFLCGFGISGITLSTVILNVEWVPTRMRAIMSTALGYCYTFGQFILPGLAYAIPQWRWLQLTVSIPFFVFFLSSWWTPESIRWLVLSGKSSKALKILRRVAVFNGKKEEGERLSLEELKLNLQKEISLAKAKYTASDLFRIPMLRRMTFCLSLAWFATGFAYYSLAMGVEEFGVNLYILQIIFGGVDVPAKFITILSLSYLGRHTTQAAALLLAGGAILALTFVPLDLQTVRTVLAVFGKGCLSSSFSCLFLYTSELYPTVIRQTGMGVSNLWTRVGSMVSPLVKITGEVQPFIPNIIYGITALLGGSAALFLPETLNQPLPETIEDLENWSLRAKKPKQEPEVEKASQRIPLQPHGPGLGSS

[5] = test system: anti-3MGA MAb; test: competitive ELISA cross-reactivity of anti-3MGA MAb; format: binding, mouse; conditions: CR = IC50 for 3MGA / IC50 for compound x 100, 3MGA calibrated as 100%
Description: To activate the hapten 3MGA for the preparation of anti-3MGA MAb, the 3MGA-KLH conjugate was synthesized by using a model based on the carbodiimide method with both EDC and NHS reagents. 3MGA-HSA was also prepared using the same method, and was used for ELISA. We also evaluated the hapten number of the 3MGA-HSA conjugate by MALDI-TOF MS analysis. […] The MAb was developed by using the same methods described in our previous study. Hybridomas secreting antibodies recognizing 3MGA were selected by ELISA and then subcloned 4 times by the limited dilution method. […] The heavy chain of the obtained MAb was classified using a Calbiochem mouse hybridoma subisotyping kit (EMD Biosciences, Darmstadt, Germany), whereas the light chain was estimated using an IsoQuick^TM mouse monoclonal isotyping strip (Sigma) according to the manufacturer’s instructions.
3MGA-HSA (1 µg/ml in 50 mM carbonate buffer, pH 9.6) was added into a 96-well plate (Nagel Nunc, Penfield, NY, USA) (100 µl/well), and incubated at 37 °C for 1 h. After the removal of 3MGA-HSA, the wells were washed with 200 µl/well PBS containing 0.05% Tween 20 (T-PBS) for 3 times. The wells were incubated with 300 µl/well of 5% skim milk (Morinaga-milk, Tokyo, Japan) at 4 °C overnight. […] After the wells were washed with T-PBS 3 times, HRP-labeled goat anti-mouse IgG (Fc specific) antibody (1:1,000 dilution with T-PBS) was added into the wells (100 µl/well), and the plate was incubated at 37 °C for 1 h. Next, the wells were washed with T-PBS 3 times, the substrate solution (0.006% H2O2 in 200 mM citrate buffer, pH 4.0/H2O/0.6 mg/ml ABTS 10:9:1) was added into the wells (100 µl/well), and incubated at room temperature for 15 min.

Structure (SMILES): CC1(C)[C@@H](O[C@@H]2O[C@H](C(=O)O)[C@@H](O)[C@H](O)[C@H]2O)CC[C@]2(C)[C@H]3C(=O)C=C4[C@@H]5C[C@@](C)(C(=O)O)CC[C@]5(C)CC[C@@]4(C)[C@]3(C)CC[C@@H]12 [Compound 3MGA, 3-monoglucuronyl glycyrrhetinic acid]
- IC50 [1]: 260 nM
- substrate of OAT1 [2]: is a substrate
- Tmax [3]: 6 h
- substrate of OAT3 [4]: is a substrate
- cross-reactivity of anti-3MGA MAb [5]: 100%
